Experimental data from US20160083643A1, “ENHANCED OIL RECOVERY METHOD EMPLOYING A BIODEGRADABLE BRINE TOLERANT FOAM-FORMING COMPOSITION” (DOW GLOBAL TECHNOLOGIES LLC, priority 2013, published 2016).

Columns and labels:
Desmondesmus subspicatus = test: Fresh water algal growth inhibition test (OECD 201); assay type: cell-based; settings: isolated, purified component from Example 3; read-out: Fresh Water algal growth inhibition test with Desmondesmus subspicatus ErC50/0-3
From the text: Aquatic Toxicity procedures and test methods are based on the recommendations of the following guidelines: Organization for Economic Cooperation and Development (OECD): OECD Guidelines for the Testing of Chemicals, “Freshwater Alga and Cyanobacteria, Growth Inhibition Test”, Procedure 201, adopted 23 Mar. 2006; European Economic Community (EEC): Commission directive 92/69/EEC of 31 Jul. 1992, Methods for the determination of ecotoxicity, C.3., “Algal Inhibition Test”. Preferably the surfactants of the present invention have a toxicity profile (EC50)>1 and </=10 mg/l; more preferably an EC50>10 and </=100 mg/l; and most preferably an EC50>100 mg/l.
The study procedures and test methods for aquatic toxicity are based on the recommendations of the following guidelines: Organization for Economic Cooperation and Development (OECD): OECD Guidelines for the Testing of Chemicals, “Freshwater Alga and Cyanobacteria, Growth Inhibition Test”, Procedure 201, adopted 23 Mar. 2006; European Economic Community (EEC): Commission directive 92/69/EEC of 31 Jul. 1992, Methods for the determination of ecotoxicity, C.3., “Algal Inhibition Test”.
Data from the aquatic toxicity tests of the isolated and purified C12 monosulfonate (sodium 2-(dodecanyloxy)-3-hydroxypropane-1-sulfonate) and C12 disulfonate (sodium 2-(dodecanyloxy)propane-1,3-disulfonate) from Example 3 is shown in Table 2. […]

Daphna magna = test: 48-hour acute toxicity to Daphna magna; assay type: in vivo; settings: isolated, purified component from Example 3

Row | SMILES | EC50 (Desmondesmus subspicatus) [mg/L] | EC50 (Daphna magna) [mg/L]
1 | CCCCCCCCCCCCOC(CS(=O)(=O)[O-])CS(=O)(=O)[O-].[Na+].[Na+] [C12 disulfonate component, sodium 2-(dodecanyloxy)propane-1,3-disulfonate] | > 100 | > 100
2 | CCCCCCCCCCCCOC(CO)CS(=O)(=O)[O-].[Na+] (stereo not shown) [C12 monosulfate component, sodium 2-(dodecanyloxy)-3-hydroxypropane-1-sulfonate] | > 100 | > 100
